Test results: publication PMC4963390, “PL3 Amidase, a Tailor-made Lysin Constructed by Domain Shuﬄing with Potent Killing Activity against Pneumococci and Related Species” (Frontiers in Microbiology, 2016)

Molecular target: T1, PL3
T1 construct: gene pal
Conditions: read-out: apparent half-dissociation constant; 20 mM sodium phosphate, reducing conditions (pH 6.8 in the other assays); 20 °C; higher-affinity sites of a two-sigmoid fit (midpoint value); lower-affinity sites not listed

Kd: 60 ± 9 µM
SMILES: C[N+](C)(C)CCO [choline]
